The values that follow come from patent US20070243548A1, “Calumenin-directed diagnostics and therapeutics for cancer and chemotherapeutic drug resistance” (priority 2006, published 2007).

Data set [1] relates to MCF-7 cells. Nature of the data set: Apoptosis assay (Annexin V staining). The data set is classed as cell-based, human. Conditions: FIG. 4. On the procedure:
This assay was performed to determine the number of cells that were susceptible to chemotherapeutic drugs following incubation with siRNAs. Cells transfected with siRNA were seeded in Lab-Tek 16-well chamber slides (Electron Microscopy Sciences, Hatfield, Pa.) at 10^4 cells/well 48 hrs post-transfection. Apoptosis was determined 16 hours later by annexin-V staining using the Annexin-V FLUOS kit (Roche, Ltd., Basel, CH) following the manufacturer's instructions. Slides were observed under a fluorescence microscope and images were taken using an Olympus digital camera and the Q-Capture software (QImaging, Burnaby, BC, CA).

Data set [2] relates to MCF-7 cells. The data set can be described thus: Phase contrast viability assay (cell morphology). The data set is classed as cell-based, human. To be noted: calumenin-depleted MCF-7 cells; FIG. 3.
For data set [3], the system named is hematological tumor cells. Nature of the data set: Hematological tumors in MHC-matched mice. In kind it is in vivo. On the procedure: In order to determine whether targeting calumenin is useful in treating a preexisting cancerous condition, MHC-matched mice, 5 to 7 weeks old, receive a subcutaneous (s.c.) injection of 5×10^5 hematological tumor cells, and tumors are allowed to form. Tumor growth starting on the first day of treatment is measured by palpitation, and the volume of the xenograft is monitored every 4 days. Tumors are allowed to grow to a sufficient size (5.5 mm) for appropriate analysis of the effects of calumenin treatment on tumor sensitivity to chemotherapeutic drugs. Mice are then treated with a calumenin siRNA (3 μg daily for 16 days) designed to decrease the level of expression of calumenin. Control mice receive no treatment, treatment with taxol or doxorubicin alone (4 mg/kg daily) or treatment with control siRNA sequences that are not complementary to murine calumenin mRNA (3 μg daily for 16 days for each treatment) in combination with taxol or doxorubicin (4 mg/kg daily). Taxol and doxorubicin can be obtained commercially from Sigma Corp. (St. Louis, Mo.).
The animal's weight is measured every 4 days. Tumor growth starting on the first day of treatment is measured by palpitation and the volume of the xenograft is monitored every 4 days. The mice are anaesthetized and sacrificed when the mean tumor weight is over 1 g in the control group. Tumor tissue is excised from the mice and its weight is measured. Tumor weights from mice treated with the calumenin siRNA and chemotherapeutic drugs are compared to tumor weights from mice treated with control siRNA and chemotherapeutic drugs. Tumor cell count is determined by trypsinizing tumors in DMEM medium supplemented with 10% fetal bovine serum until cells are in free suspension. Cells are then transferred to 6-well plates for counting. Cell counts are compared. All experiments are performed in triplicate.
In order to determine whether targeting calumenin is useful in treating a preexisting cancerous condition, MHC-matched mice, 5 to 7 weeks old, receive an s.c. injection of 5×10^5 hematological tumor cells, and tumors are allowed to form. Tumor growth starting on the first day of treatment is measured by palpitation and the volume of the xenograft is monitored every 4 days. Tumors are allowed to grow to a sufficient size (5.5 mm) for appropriate analysis of the effects of calumenin treatment on tumor sensitivity to chemotherapeutic drugs. […]
The animal's weight is measured every 4 days. Tumor growth starting on the first day of treatment is measured and the volume of the xenograft is monitored every 4 days. […] Tumor tissue is excised from the mice and its weight is measured. […] Tumor cell count is determined by trypsinizing tumors in DMEM medium supplemented with 10% fetal bovine serum until cells are in free suspension. […]

Data set [4] deals with MCF-7 cells. The data set can be described thus: cells. In kind it is cell-based, human. On the procedure: For a typical siRNA transfection, […] of the annealed siRNA duplex was mixed with 1.4 ml of Opti-MEM reagent (Invitrogen). In another tube, […] of Oligofectamine reagent (Invitrogen, Carlsbad, Calif.) was mixed with […] of Opti-MEM. The two solutions were combined and mixed gently by inversion and incubated for 20 min. at RT. The resulting solution was added to the cultured cells drop by drop in a 10 cm dish (cells are approximately 40-50% confluent). The next day the transfected cells were trypsinized and seeded in 6 or 96-well plates and further incubated for the indicated amount of time (assay dependent) before further analysis.
Cell survival was determined using the MTT cytotoxicity assay (see, e.g., Tokuyama et al. (2005) Anticancer Res. 25(1A): 17-22). Small interfering RNA transfected cells were seeded in triplicate into 96-well plates at 5×10^3 cells/well 48 hrs post-transfection. The cells were incubated for an additional 16 to 24 hrs before they were exposed to increasing concentrations of cytotoxic drugs. Doxorubicin (adriamycin), cisplatin, taxol, vinblastine, vincristine, and mitoxantrone were all purchased from Sigma Corp. (St. Louis, Mo.). Stocks were made as follows: 6 mM for doxorubicin, 1.1 mM for vincristine and vinblastine; 1.1 mM for taxol, 50 mM for cisplatin both in DMSO; and 0.97 mM mitoxantrone in ethanol. Appropriate dilutions were made in the respective media for each cell line. Following addition of drugs, incubation was continued for an additional 72 hrs. […] of MTT dye (5 mg/ml) were added into each well and the plate was further incubated at 37° C. for 4 hrs. The dye was solubilized with 10% Triton X-100, 0.01 N HCl and further incubated at 37° C. in the dark for 30 min. Cell viability was determined by measure of absorption at 570 nm in a Wallac multiwell plate reader (PerkinElmer, Inc., Boston, Mass.). The averages of triplicate wells were plotted using the Prism software (GraphPad Software, Inc., San Diego, Calif.).

For the substance “Calumenin siRNA: siRNA duplex targeting human calumenin mRNA; sense 5′-GAAGGACCGUGUACAUCAU-3′ (SEQ ID NO: 1), anti-sense 5′-AUGAUGUACACGGUCCUUC-3′ (SEQ ID NO: 2), 3′TT overhangs (3' TT overhangs on both strands, further chemistry not given here)”, in the data set with MCF-7 cells [1] (compared to cell population treated with control siRNA), the “number of Annexin-V-positive cells” value was “substantially greater number”. Also, the cell survival entry with MCF-7 cells [1] (compared to cells treated with siGLO control siRNA) is given as “decreased”. Besides, in the data set on MCF-7 cells [2], the cell morphology entry is “more rounded cell morphology”. The “prognosis (i.e., smaller tumor or fewer tumor cells)” value in data set [3] (composition vs only the targeting agent or only the chemotherapeutic drug) was “better prognosis”. The “total cell number in tumors” value in data set [3] (hematological cancers, vs mice treated with control siRNA) is “lower”. Moreover, the tumors by weight entry in data set [3] (hematological cancers, vs mice treated with control siRNA, 3 μg siRNA daily for 16 days) was “smaller”. Also, in data set [3] (hematological tumors in mice), the “sensitivity of tumors to chemotherapeutic drug treatment regimes” value is recorded as “increases”. For the same substance, in the data set with MCF-7 cells [4], the “decrease in cell viability of MCF-7 cells” value is 48%.
